Experimental data taken from patent publication US10544149B2, “Bicyclic alkyne derivatives and uses thereof” (Agency for Science, Technology and Research, priority 2013, dated 2020).

Key:
[1] = tested on: TNF production by macrophage; conditions: TLR agonist stimulation, dose dependant; cited from earlier work
MNK2 = MNK2 (Homo sapiens, UniProt Q9HBH9); experiment: MNK2 enzymatic assay; format: biochemical
[2] = tested on: eIF4e phosphorylation in Hela cell line; experiment: eIF4e phosphorylation inhibition in Hela cell line; format: cell-based; conditions: Homo sapiens, cellular
MNK1 = MNK1 (Homo sapiens, UniProt Q9BUB5); experiment: MNK1 enzymatic assay; format: biochemical
Sequence of MNK1 (Q9BUB5 whole entry): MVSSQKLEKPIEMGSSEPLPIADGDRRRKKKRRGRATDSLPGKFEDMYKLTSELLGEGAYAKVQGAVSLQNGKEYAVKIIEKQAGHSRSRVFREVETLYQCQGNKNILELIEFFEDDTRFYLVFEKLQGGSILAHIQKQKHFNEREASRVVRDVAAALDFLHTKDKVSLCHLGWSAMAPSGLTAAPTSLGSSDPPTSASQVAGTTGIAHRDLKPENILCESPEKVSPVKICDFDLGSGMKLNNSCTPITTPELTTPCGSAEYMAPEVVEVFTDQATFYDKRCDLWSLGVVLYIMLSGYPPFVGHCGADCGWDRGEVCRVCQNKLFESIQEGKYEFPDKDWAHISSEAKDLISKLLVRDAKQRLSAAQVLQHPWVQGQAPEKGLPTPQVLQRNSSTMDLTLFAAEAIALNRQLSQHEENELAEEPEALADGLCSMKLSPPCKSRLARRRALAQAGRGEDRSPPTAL

Sequence of MNK2 (Q9HBH9 whole entry): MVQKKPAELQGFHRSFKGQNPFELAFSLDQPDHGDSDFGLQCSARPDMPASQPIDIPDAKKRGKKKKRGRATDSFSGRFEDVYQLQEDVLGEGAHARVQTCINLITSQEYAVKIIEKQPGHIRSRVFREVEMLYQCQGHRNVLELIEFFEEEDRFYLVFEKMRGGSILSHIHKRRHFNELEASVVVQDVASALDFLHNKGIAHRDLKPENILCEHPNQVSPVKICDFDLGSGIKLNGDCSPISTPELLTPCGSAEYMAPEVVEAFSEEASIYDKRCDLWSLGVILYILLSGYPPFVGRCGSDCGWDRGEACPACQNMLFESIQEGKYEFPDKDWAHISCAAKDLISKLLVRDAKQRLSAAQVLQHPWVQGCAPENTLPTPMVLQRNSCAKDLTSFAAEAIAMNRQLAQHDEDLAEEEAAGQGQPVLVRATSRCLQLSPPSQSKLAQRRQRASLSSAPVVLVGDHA

SMILES	IC50 (MNK2)	IC50 [2]	IC50 (MNK1)	melting point	production / release of TNF [1]
Nc1ncnc2n[nH]c(Nc3ccc(F)cc3)c12 [CGP57380]					inhibits
O=C(c1ccc(-c2ccn3ncc(C#Cc4ccncc4)c3n2)cc1)N1CCOCC1 [Example 114, morpholino(4-(3-(pyridin-4-ylethynyl)pyrazolo[1,5-a]pyrimidin-5-yl)phenyl)methanone]	< 0.5 µM	< 5 µM	< 0.5 µM	206 to 209 °C	

More lines, main results first:

IC50 (MNK2)	IC50 [2]	IC50 (MNK1)	melting point	SMILES	production / release of TNF [1]
< 0.5 µM	< 5 µM	< 0.5 µM	120 to 136 °C	O=C(c1ccc(-c2ccn3ncc(C#Cc4ccncc4)c3n2)cc1)N1CCNCC1 [Example 115, piperazin-1-yl(4-(3-(pyridin-4-ylethynyl)pyrazolo[1,5-a]pyrimidin-5-yl)phenyl)methanone]	
< 0.5 µM	< 5 µM	< 0.5 µM	233 to 236 °C	Cc1cnccc1C#Cc1cnn2ccc(-c3ccc(C(=O)N4CCOCC4)cc3)nc12 [Example 116, (4-(3-((3-methylpyridin-4-yl)ethynyl)pyrazolo[1,5-a]pyrimidin-5-yl)phenyl)(morpholino)methanone]	
< 0.5 µM	< 5 µM	< 0.5 µM	245 to 254 °C	Nc1ncc(C#Cc2cnc3ccc(-c4ccc(C(=O)N5CCOCC5)cc4)nn23)s1 [Example 121, (4-(3-((2-aminothiazol-5-yl)ethynyl)imidazo[1,2-b]pyridazin-6-yl)phenyl) (morpholino)methanone]	
